Laboratory results from patent US9023789B2, “Amylin analogs and pharmaceutical compositions thereof” (Novo Nordisk A/S, priority 2012, dated 2015).
In brackets after ≈: the same amount, converted by molar mass. Like-named read-outs stand apart in the source and are kept apart here. Numbered stars: 1 amine (or outer) side, 2 acyl side, 3 side chain; on linkers, the order of the positions; unused ones are H or OH. Bridge positions count the residues as written; N and C are the ends. Side chains are listed from the residue outwards. Peptide text beside a SMILES is read from it. * marks the point of attachment. C20 diacid = O=C(O)CCCCCCCCCCCCCCCCCCC(=O)*; γGlu = O=C(O)[C@H](CCC(=O)[*:2])N[*:1]

How the values were obtained:
[1] = ASSAY (IV) determination of solubility; type: physicochemical
Procedure, shortened: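 Solubility measured by UPLC of supernatant after centrifugation, following 18 h at room temperature. Peptide ([…] in water) was diluted 1:1 into 100 mM glycylglycine (pH 3.0, 4.0, 5.0) or bistrispropane (pH 6.0-8.0).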

[2] = biological target: T1, rat amylin receptor (rat calcitonin receptor + rat RAMP 3) (Rattus norvegicus, UniProt P32214+Q9JJ73); experiment: ASSAY (VI) binding to the rat amylin receptor; conditions: for IC50: binding to rat amylin receptor, read-out: rAmylin-R bind IC50
T1 construct: expressed in transfected cells; host or cells: BHK tk'ts 13 (transient, FuGENE 6), membranes
T1 sequence (P32214 25-479 isoform P32214-2 limits assumed): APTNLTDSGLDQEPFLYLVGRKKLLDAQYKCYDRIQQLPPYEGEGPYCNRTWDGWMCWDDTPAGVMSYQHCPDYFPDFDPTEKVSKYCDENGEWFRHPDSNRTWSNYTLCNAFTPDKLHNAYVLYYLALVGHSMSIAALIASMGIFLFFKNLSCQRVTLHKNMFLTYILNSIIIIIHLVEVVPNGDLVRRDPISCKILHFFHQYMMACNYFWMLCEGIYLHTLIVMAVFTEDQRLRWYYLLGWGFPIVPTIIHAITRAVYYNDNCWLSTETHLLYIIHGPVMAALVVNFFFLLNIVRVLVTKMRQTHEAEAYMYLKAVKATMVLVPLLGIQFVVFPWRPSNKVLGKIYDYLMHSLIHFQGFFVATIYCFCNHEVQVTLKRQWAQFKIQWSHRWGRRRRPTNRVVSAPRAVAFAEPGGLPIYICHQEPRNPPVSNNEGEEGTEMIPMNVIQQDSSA
T1 sequence (Q9JJ73 23-147 partner): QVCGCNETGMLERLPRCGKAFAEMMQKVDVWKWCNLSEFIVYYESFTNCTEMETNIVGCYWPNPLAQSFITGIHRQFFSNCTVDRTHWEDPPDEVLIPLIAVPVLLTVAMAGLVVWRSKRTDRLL
Procedure, shortened: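 Membranes for this rat amylin receptor binding assay came from BHK tk′ts 13 cells. The cells were transiently transfected with rat calcitonin receptor using the FuGENE® 6 reagent from Roche, as the manufacturer recommends. The cells were collected approximately 48 hours after transfection, and membranes were then prepared.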

[3] = biological target: T2, human amylin receptor (membranes from Amylin 3(a)/CRE-luc cells) (Homo sapiens, UniProt O60896+P30988); experiment: ASSAY (V) binding to the human amylin receptor (SPA, 125I-rat amylin); conditions: for IC50: Table 4, read-out: hAmylin-R bind IC50;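 for all read-outs here: competition binding of cell membranes (35 ng/µL) mixed with SPA beads in 384-well plates at 40 µL total volume, read by scintillation counting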
T2 construct: expressed in transfected cells
T2 sequence (P30988 25-474): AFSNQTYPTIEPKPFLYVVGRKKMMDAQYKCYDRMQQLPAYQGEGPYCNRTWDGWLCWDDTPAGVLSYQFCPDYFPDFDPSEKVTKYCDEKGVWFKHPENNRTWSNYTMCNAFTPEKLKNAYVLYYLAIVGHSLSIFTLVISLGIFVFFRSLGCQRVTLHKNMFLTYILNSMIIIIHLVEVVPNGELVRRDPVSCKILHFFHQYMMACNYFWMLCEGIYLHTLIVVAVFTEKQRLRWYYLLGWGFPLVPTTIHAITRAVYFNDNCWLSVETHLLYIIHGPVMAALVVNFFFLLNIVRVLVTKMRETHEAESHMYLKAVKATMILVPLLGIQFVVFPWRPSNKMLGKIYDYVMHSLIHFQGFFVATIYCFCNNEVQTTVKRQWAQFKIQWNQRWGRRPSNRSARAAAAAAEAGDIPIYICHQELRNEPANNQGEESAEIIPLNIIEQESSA
T2 sequence (O60896 24-148 partner): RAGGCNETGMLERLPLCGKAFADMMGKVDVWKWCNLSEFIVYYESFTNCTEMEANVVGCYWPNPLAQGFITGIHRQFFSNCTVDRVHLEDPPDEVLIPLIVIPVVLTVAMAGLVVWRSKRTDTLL

rat calcitonin receptor = biological target: T3, rat calcitonin receptor (Rattus norvegicus, UniProt P32214); experiment: ASSAY (VIII) binding to the rat calcitonin receptor; conditions: Table 7, read-out: rCTR bind IC50
T3 construct: expressed in transfected cells; host or cells: BHK tk'ts 13 (transient, FuGENE 6), membranes
T3 sequence (P32214 25-479 isoform P32214-2 limits assumed): T1 sequence (P32214 25-479 isoform P32214-2 limits assumed)
Procedure, shortened: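 BHK tk′ts 13 cells, transient rat calcitonin receptor transfection; DMEM + 10% FBS; harvest ~48 h post-transfection; membrane prep.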

[4] = bistrispropane buffer, pH 6.5, read-out: Solubility pH 6.5 Concentration
[5] = bistrispropane buffer, pH 7.5, read-out: Solubility pH 7.5 Concentration
[6] = bistrispropane buffer, pH 6.0, read-out: Solubility pH 6.0 Concentration
[7] = bistrispropane buffer, pH 7.0, read-out: Solubility pH 7.0 Concentration
[8] = bistrispropane buffer, pH 8.0, read-out: Solubility pH 8.0 Concentration
[9] = glycylglycine buffer, pH 3.0, read-out: Solubility pH 3.0 Concentration
[10] = glycylglycine buffer, pH 4.0, read-out: Solubility pH 4.0 Concentration
[11] = glycylglycine buffer, pH 5.0, read-out: Solubility pH 5.0 Concentration
[12] = Table 7, rat binding selectivity, rCTR IC50 / rAmylin-R IC50
[13] = Table 7a (preferred compounds), rat binding selectivity, rCTR IC50 / rAmylin-R IC50
[14] = ratio of rCTR bind IC50 to rAmylin-R bind IC50
[15] = Table 5, selectivity, hCTR bind IC50 / hAmylin-R bind IC50
[16] = Table 5a, selectivity, hCTR bind IC50 / hAmylin-R bind IC50
[17] = Table 5b, selectivity, hCTR bind IC50 / hAmylin-R bind IC50
[18] = Table 7, human binding selectivity, included for comparison
[19] = Table 7a (preferred compounds), human binding selectivity, included for comparison
[20] = ratio of human calcitonin receptor binding IC50 to human amylin receptor binding IC50

| SMILES | solubility at 18 h [1, 4] [µM] | solubility at 18 h [1, 5] [µM] | solubility at 18 h [1, 6] [µM] | solubility at 18 h [1, 7] [µM] | solubility at 18 h [1, 8] [µM] | solubility at 18 h [1, 9] [µM] | solubility at 18 h [1, 10] [µM] | solubility at 18 h [1, 11] [µM] | IC50 ([2]; Table 7) [nM] | Ratio rCT/rAmylin binding [2, 12] | Ratio rCT/rAmylin binding [2, 13] | Ratio rCT/rAmylin binding [2, 14] | IC50 [3] [nM] | Ratio hCT/hAmylin binding [3, 15] | Ratio hCT/hAmylin binding [3, 16] | Ratio hCT/hAmylin binding [3, 17] | Ratio hCT/hAmylin binding [3, 18] | Ratio hCT/hAmylin binding [3, 19] | Ratio hCT/hAmylin binding [3, 20] | IC50 (rat calcitonin receptor) [nM] | further results |
| --- | --- | --- | --- | --- | --- | --- | --- | --- | --- | --- | --- | --- | --- | --- | --- | --- | --- | --- | --- | --- | --- |
| CC[C@H](C)[C@H](NC(=O)[C@H](C)NC(=O)CNC(=O)[C@H](Cc1ccccc1)NC(=O)[C@H](CC(N)=O)NC(=O)[C@@H]1CCCN1C(=O)[C@H](CO)NC(=O)[C@H](CO)NC(=O)[C@H](Cc1c[nH]cn1)NC(=O)[C@H](CCCNC(=N)N)NC(=O)[C@H](CC(C)C)NC(=O)[C@H](Cc1ccccc1)NC(=O)[C@H](CC(=O)O)NC(=O)[C@H](C)NC(=O)[C@H](CC(C)C)NC(=O)[C@H](CCCNC(=N)N)NC(=O)[C@H](CCC(N)=O)NC(=O)[C@@H](NC(=O)[C@H](C)NC(=O)[C@@H]1CSSC[C@H](NC(=O)[C@@H](N)CCCCNC(=O)CC[C@H](NC(=O)CCCCCCCCCCCCCCCCCCC(=O)O)C(=O)O)C(=O)N[C@@H](CC(N)=O)C(=O)N[C@@H]([C@@H](C)O)C(=O)N[C@@H](C)C(=O)N[C@@H]([C@@H](C)O)C(=O)N1)[C@@H](C)O)C(=O)N1CCC[C@H]1C(=O)N[C@@H](CO)C(=O)N[C@@H](CO)C(=O)N[C@H](C(=O)N[C@@H](CC(N)=O)C(=O)N[C@H](C(=O)NCC(=O)N1CCC[C@H]1C(=O)N[C@@H](CCCNC(=N)N)C(=O)N[C@H](C(=O)N[C@@H](Cc1ccc(O)cc1)C(N)=O)[C@@H](C)O)C(C)C)[C@@H](C)O [Example 129] (H-K([γGlu-C20 diacid])CNTATCATQRLADFLRHSSPNFGAIPSSTNVGPRTY-NH2; disulfide 2-7 (inferred); N-terminus assumed) | ≥ 200 | 187 (≈ 829 µg/mL) | ≥ 200 | ≥ 200 | 102 (≈ 452 µg/mL) | ≥ 200 | ≥ 200 | ≥ 200 | 0.504 | 116.0 | 116.0 | 116.0 | 0.281 | 151.1 | 151.1 | 151.1 | 151.1 | 151.1 | 151.1 | 58.5 | Ratio hCT/hAmylin binding ([3]; Table 5c, selectivity, hCTR bind IC50 / hAmylin-R bind IC50): 151.1 |
| CC[C@H](C)[C@H](NC(=O)[C@H](C)NC(=O)CNC(=O)[C@H](Cc1ccccc1)NC(=O)[C@H](CC(N)=O)NC(=O)[C@@H]1CCCN1C(=O)[C@H](CO)NC(=O)[C@H](CO)NC(=O)[C@H](Cc1c[nH]cn1)NC(=O)[C@H](CCCNC(=N)N)NC(=O)[C@H](CC(C)C)NC(=O)[C@H](Cc1ccccc1)NC(=O)[C@H](CCC(=O)O)NC(=O)[C@H](C)NC(=O)[C@H](CC(C)C)NC(=O)[C@H](CCCNC(=N)N)NC(=O)[C@H](CCC(N)=O)NC(=O)[C@@H](NC(=O)[C@H](C)NC(=O)[C@@H]1CSSC[C@H](NC(=O)[C@@H](N)CCCCNC(=O)CC[C@H](NC(=O)CC[C@H](NC(=O)CCCCCCCCCCCCCCCCCCC(=O)O)C(=O)O)C(=O)O)C(=O)N[C@@H](CC(N)=O)C(=O)N[C@@H]([C@@H](C)O)C(=O)N[C@@H](C)C(=O)N[C@@H]([C@@H](C)O)C(=O)N1)[C@@H](C)O)C(=O)N1CCC[C@H]1C(=O)N[C@@H](CO)C(=O)N[C@@H](CO)C(=O)N[C@H](C(=O)N[C@@H](CC(N)=O)C(=O)N[C@H](C(=O)NCC(=O)N1CCC[C@H]1C(=O)N[C@@H](CC(N)=O)C(=O)N[C@H](C(=O)N[C@@H](Cc1ccccc1)C(N)=O)[C@@H](C)O)C(C)C)[C@@H](C)O [Example 127] (H-K([γGlu-γGlu-C20 diacid])CNTATCATQRLAEFLRHSSPNFGAIPSSTNVGPNTF-NH2; disulfide 2-7 (inferred)) | – | – | – | – | – | – | – | – | 0.205 | 114.0 | 114.0 | 114.0 | – | 18.0 | 18.0 | 18.0 | 18.0 | 18.0 | 18.0 | 23.4 | – |
| CC[C@H](C)[C@H](NC(=O)[C@H](C)NC(=O)CNC(=O)[C@H](Cc1ccccc1)NC(=O)[C@H](CC(N)=O)NC(=O)[C@@H]1CCCN1C(=O)[C@H](CO)NC(=O)[C@H](CO)NC(=O)[C@H](Cc1c[nH]cn1)NC(=O)[C@H](CCCNC(=N)N)NC(=O)[C@H](CC(C)C)NC(=O)[C@H](Cc1ccccc1)NC(=O)[C@H](Cc1c[nH]cn1)NC(=O)[C@H](C)NC(=O)[C@H](CC(C)C)NC(=O)[C@H](CCCNC(=N)N)NC(=O)[C@H](CCC(N)=O)NC(=O)[C@@H](NC(=O)[C@H](C)NC(=O)[C@@H]1CSSC[C@H](NC(=O)[C@@H](N)CCCCNC(=O)CC[C@H](NC(=O)CCCCCCCCCCCCCCCCCCC(=O)O)C(=O)O)C(=O)N[C@@H](CC(N)=O)C(=O)N[C@@H]([C@@H](C)O)C(=O)N[C@@H](C)C(=O)N[C@@H]([C@@H](C)O)C(=O)N1)[C@@H](C)O)C(=O)N1CCC[C@H]1C(=O)N[C@@H](CO)C(=O)N[C@@H](CO)C(=O)N[C@H](C(=O)N[C@@H](CC(N)=O)C(=O)N[C@H](C(=O)NCC(=O)N1CCC[C@H]1C(=O)N[C@@H](CC(N)=O)C(=O)N[C@H](C(=O)N1CCC[C@H]1C(N)=O)[C@@H](C)O)C(C)C)[C@@H](C)O [Example 115] (H-K([γGlu-C20 diacid])CNTATCATQRLAHFLRHSSPNFGAIPSSTNVGPNTP-NH2; disulfide 2-7 (inferred); N-terminus assumed) | ≥ 200 | ≥ 200 | ≥ 200 | ≥ 200 | ≥ 200 | ≥ 200 | ≥ 200 | ≥ 200 | 0.125 | 3.0 | – | – | 0.131 | 1.2 | – | – | 1.2 | – | – | – | – |
